Measurements reported in patent publication US20060258670A1, “New phenylpyridylpiperazine compounds” (priority 2005, published 2006).

What was measured:
[1] = molecular target: T1, type H3 central histamine receptors (Mus musculus, UniProt P58406); assay: Cerebral levels of N^t-methylhistamine in the NMRI mouse (ex vivo, RIA); details: one hour after treatment, versus carrier
T1 construct: from tissue; host or cells: brain of living NMRI mice
Experimental: The purpose of this study, which was carried out in accordance with the method of Taylor et al. (Biochem. Pharm., 1992, 44, 1261-1267), is to evaluate the ex vivo activity of the compounds of the present invention as antagonists of type H3 central histamine receptors. […] An increase in the cerebral concentrations of N^t-methylhistamine indicates an increase in the turn-over of histamine by blockage of the type H3 central histamine receptors.
NMRI mice (18-20 g) are treated intraperitoneally or orally with compounds of the present invention or with their carrier (20 ml/kg). One hour after the pharmacological treatment, the animals are sacrificed, and their brains are removed, frozen in liquid nitrogen, weighed and homogenised in 0.1N HClO4 at 4° C. The homogenised products are centrifuged (15 000 g, 17 min, 4° C.). The supernatants are recovered and divided into aliquots. The aliquots are frozen in, liquid nitrogen and stored at −80° C. until analysis.
Determination of the cerebral levels of N^t-methylhistamine is carried out by radioimmunological assay (RIA) using an assay kit. The tissue levels of N^t-methylhistamine are expressed in […] of fresh brain. The comparison of the cerebral levels of N^t-methylhistamine between animals treated with the carrier (controls) and animals treated with compounds of the present invention is carried out by single-factor variance analysis followed, if necessary, by a complementary analysis (Dunnett's test).

[2] = test system: Adult male Wistar rats; assay: Electroencephalographic recordings on freely moving rats; format: in vivo; details: Wistar rat, EEG
Experimental: Adult male Wistar rats were chronically implanted with electrodes placed over the frontal and panetal cortex. Cortical electroencephalogram (EEG) was recorded from rats placed inside cages in a sound attenuating-room. Compounds and vehicle were administered in a random order at 10:00 AM on the same days with a minimum of 3 days between each administration, allowing each rat to serve as its own control. Absolute power of slow wave delta band activity (1-4 Hz), that predominates during slow wave sleep and disappears during wakefulness and rapid eyes movement sleep, was averaged over successive periods of 30 min. Over 30 min, low and high values of slow wave delta power are signs of arousal and sleep, respectively.

T1 sequence (P58406 whole entry): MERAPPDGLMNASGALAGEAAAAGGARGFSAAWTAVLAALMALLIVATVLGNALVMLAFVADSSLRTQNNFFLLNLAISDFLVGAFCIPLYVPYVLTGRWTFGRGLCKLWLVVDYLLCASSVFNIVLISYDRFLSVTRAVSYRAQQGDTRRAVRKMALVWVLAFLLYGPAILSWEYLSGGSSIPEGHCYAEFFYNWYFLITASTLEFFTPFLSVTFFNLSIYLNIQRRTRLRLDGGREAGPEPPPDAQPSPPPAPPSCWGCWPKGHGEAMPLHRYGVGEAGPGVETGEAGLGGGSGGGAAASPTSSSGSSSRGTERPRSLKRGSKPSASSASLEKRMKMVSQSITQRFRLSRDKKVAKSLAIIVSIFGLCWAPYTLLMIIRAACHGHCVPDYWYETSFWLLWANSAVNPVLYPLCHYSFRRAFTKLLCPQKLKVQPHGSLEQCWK

Compound | increase of endogenous cerebral concentrations of N^t-methylhistamine ([1]; 10 mg/kg PO) [%] | duration of significant reduction of slow wave delta power (cortical activation and arousal) ([2]; 0.3 mg/kg) [min] | sleep latency: first slow wave sleep episode after administration ([2]; 3 mg/kg, control group 45±5 minutes) [min] | increase of endogenous cerebral concentrations of N^t-methylhistamine ([1]; 3 mg/kg PO) [%]
CC(C)N1CCN(c2ccc(-c3ccc(S(=O)(=O)N4CCN(C)CC4)cc3)cn2)CC1.Cl.Cl.Cl [Example 9, 1-Isopropyl-4-(5-{4-[(4-methylpiperazin-1-yl)sulphonyl]phenyl}pyridin-2-yl)piperazine trihydrochloride] | 121 |  |  | 
CC(C)N1CCN(c2ccc(-c3ccc(S(=O)(=O)N4CCOCC4)cc3)cn2)CC1.Cl.Cl [Example 1] | 105 | 150 | 73 ± 5 | 
CCN1CCN(c2ccc(-c3ccc(S(=O)(=O)N4CCCCC4)cc3)cn2)CC1.Cl.Cl [Example 5] | 197 |  |  | 
CC(C)CN1CCN(c2ccc(-c3ccc(S(=O)(=O)N4CCOCC4)cc3)cn2)CC1.Cl.Cl [Example 21, 4-({4-[6-(4-Isobutylpiperazin-1-yl)pyridin-3-yl]phenyl}sulphonyl)-morpholine dihydrochloride] |  |  |  | 168
